pIC50: −log10 of the molar value. Marks after values point to notes of the source that are not given here.
Columns and labels:
[1] = system: A549 human lung cancer cells; experiment: Measurement of PGE2 in IL-1β-treated A549 human lung cancer cells; type: cell-based; conditions: PGE2 production, A549 cell, IL-1β 1 ng/mL, 48 hours
Description: Samples at various concentrations were added at 24 hours after A549 human lung cancer cells were seeded. After 1 hour, IL-1β of 1 ng/mL was added. The cells were cultured for 48 hours and then the culture supernatant was collected. PGE2 of the collected supernatant was measured according to the manufacturer's instructions using a PGE2 EIA kit.

[2] = system: guinea pig model of osteoarthritis induced by MIA (monosodium iodoacetate); experiment: Hind limb incapacitance test in guinea pig model of osteoarthritis induced by MIA; type: in vivo; conditions: for Weight-bearing ratio: GRC27864 12.5 mg/kg oral
Description: An experiment was conducted as follows in order to evaluate the efficacy of the compound according to the present invention for osteoarthritis-induced guinea pigs.
(§1) Specifically, male guinea pigs weighing about 500 g±20% from Coretech Co., Ltd. (Gyeonggi-do, Korea) were acclimated in a laboratory for 8 days, and provided chow and water ad libitum. Temperature (23±3° C.), humidity (55±15%) and light/dark cycle (12 hours, 08:00˜20:00) were controlled automatically.
(§2) Each group consisted of 10 guinea pigs. Guinea pigs were anesthetized with Zoletil 50 (VIRBAC, France, 5 mg/kg) and xylazine (Rompun®, Bayer AG, Germany, 2.5 mg/kg) and depilated at the area around the right knee with Clipper. Using a C-arm (ARCADIS Varic, SIEMENS Co.), it was confirmed that a syringe equipped with a 26 gauge needle was located in the joint cavity. 50 μL of MIA at a concentration of 60 mg/mL was administered into the joint cavity. One week after MIA administration, Compound 9 of the present invention was added to excipients (DMSO (10% by weight), Tween 80 (30% by weight), HMPC (same amount as the drug)), dissolved in water so that the total amount was 100% by weight, and orally administered to the prepared experimental animals at 10 mg/kg and 25 mg/kg, respectively. In the positive control group, GRC27864 was orally administered at 12.5 mg/kg using the same excipient, and only the excipient was orally administered to the control group. The drug was administered for 4 weeks.
(§3) The hind limb incapacitance test was performed for the behavioral evaluation weekly for 4 weeks and the inflammatory factor evaluation was performed by measuring PGE2, IL-1β, and TNF-α in blood after 4 weeks.
The hind limb weight-bearing ratios were obtained by setting up the animals at an inclination of 60 degrees in a plastic room using an incapacitance meter tester, measuring the intensity applied to each hind limb over 10 seconds, and calculating an average. Weight-bearing ratios are 50% for normal cases and up to early 30% for the cases in which a disease is induced.

[3] = system: PGE2, IL-1β, and TNF-α in blood; experiment: Inflammatory factor evaluation (ELISA) in blood of MIA osteoarthritis guinea pigs; type: in vivo, guinea pig; conditions: blood, after 4 weeks, 12.5 mpk oral
Description: as §1, §2, §3
The concentrations of PGE2, IL-1β, and TNF-α in blood were measured using commercially available ELISA kit after 4 weeks. The results are shown in Table 4 below and FIGS. 2 to 4. ***, ** and * represent statistical significance compared to the control group, and are P<0.001, P<0.01, and P<0.05 compared to the control group.

[4] = system: acetic acid-induced abdominal contraction mouse model; experiment: Anti-pain efficacy test, acetic acid-induced abdominal contraction mouse model; type: in vivo; conditions: oral, 1 hour before 0.7% acetic acid i.p.; writhing counted for 10 minutes (FIG. 5)
Description: In order to evaluate the anti-pain efficacy of the compound according to the present invention in abdominal contraction mice, an experiment was conducted as follows.
Specifically, male ICR mice weighing about 20 to 25 g from Orient Bio Co., Ltd. (Gyeonggi-do, Korea) were acclimated in a laboratory for 7 days and provided chow and water ad libitum. Temperature (20±2° C.), humidity (40±60%) and light/dark cycle (12 hours) were controlled automatically.
Based on 10 mice per group, the control group was orally administered with an excipient (200 μL), and the positive control group was orally administered with celecoxib at 25 mg/kg. Compound 9 of the present invention was dissolved in an excipient (10% NMP (N-methyl-2-pyrrolidone), 10% ethanol, 80% polyethylene glycol 400) and administered orally at 10 and 50 mg/kg to each mouse. One hour after drug administration, 0.7% acetic acid was intraperitoneally injected at […] to induce pain. The number of writhing was measured for 10 minutes from 10 minutes after the acetic acid administration.
In this experiment, the less the number of writhing for 10 minutes, the stronger the anti-pain efficacy of the drug was evaluated. The statistical significance compared to the control group was represented as **P<0.01, *P<0.05 compared to the control group.

Row | Structure (SMILES) | pIC50 [1] | further results
1 | CC(C)C(=O)NCc1ccc(Cl)c(CNc2ccc3c(c2)cc(C(=O)Nc2ccc(OC(F)(F)F)cc2)n3C)c1 [Compound 73, 5-((2-chloro-5-(isobutyramidomethyl)benzyl)amino)-1-methyl-N-(4-(trifluoromethoxy)phenyl)-1H-indole-2-carboxamide] | 7.14 | 
2 | CC(C)C(=O)NCc1ccc(Cl)c(C(=O)Nc2ccc3c(c2)cc(C(=O)N[C@@H](C)c2ccc(C(F)(F)F)cc2)n3C)c1 [Compound 60, (S)-5-(2-chloro-5-(isobutyramidomethyl)benzamido)-1-methyl-N-(1-(4-(trifluoromethyl)phenyl)ethyl)-1H-indole-2-carboxamide] | 7.52 | 
3 | CC(C)C(=O)NCc1ccc(Cl)c(C(=O)Nc2ccc3c(c2)cc(C(=O)NCc2ccc(Cl)c(F)c2)n3CC(F)(F)F)c1 [Compound 71, N-(4-chloro-3-fluorobenzyl)-5-(2-chloro-5-(isobutyramidomethyl)benzamido)-1-(2,2,2-trifluoroethyl)-1H-indole-2-carboxamide] | 7.70 | 
4 | Cc1ccc(-c2cc(C(F)(F)F)nn2-c2ccc(S(N)(=O)=O)cc2)cc1 [celecoxib, reference compound] |  | number of writhing compared to the control group [4]: significantly lower number of writhing compared to the control group
5 | CC(C)C(=O)NCc1ccc(Cl)c(C(=O)Nc2ccc3c(c2)cc(C(=O)NCc2ccc(F)cc2)n3C)c1 [Compound 32, 5-(2-chloro-5-(isobutyramidomethyl)benzamido)-N-(4-fluorobenzyl)-1-methyl-1H-indole-2-carboxamide] | 8.02 | 
6 | CC(C)C(=O)NCc1ccc(Cl)c(C(=O)Nc2ccc3c(c2)cc(C(=O)Nc2cccc(F)c2)n3C)c1 [Compound 1, 5-(2-chloro-5-(isobutyramidomethyl)benzamido)-N-(3-fluorophenyl)-1-methyl-1H-indole-2-carboxamide] | 6.56 | 
7 | CC(C)C(=O)NCc1ccc(Cl)c(C(=O)Nc2ccc3c(c2)cc(C(=O)NCc2ccc(F)c(Cl)c2)n3C)c1 [Compound 56, N-(3-chloro-4-fluorobenzyl)-5-(2-chloro-5-(isobutyramidomethyl)benzamido)-1-methyl-1H-indole-2-carboxamide] | 7.23 | 
8 | Cc1cc(F)ccc1NC(=O)c1cc2cc(NC(=O)c3cc(CNC(=O)C(C)C)ccc3Cl)ccc2n1C [Compound 23, 5-(2-chloro-5-(isobutyramidomethyl)benzamido)-N-(4-fluoro-2-methylphenyl)-1-methyl-1H-indole-2-carboxamide] | 7.35 | 
9 | CC(C)C(=O)NCc1ccc(Cl)c(C(=O)Nc2ccc3c(c2)cc(C(=O)Nc2cccc(Cl)c2)n3C)c1 [Compound 3, 5-(2-chloro-5-(isobutyramidomethyl)benzamido)-N-(3-chlorophenyl)-1-methyl-1H-indole-2-carboxamide] | 6.68 | 
10 | CC(C)C(=O)NCc1ccc(Cl)c(C(=O)Nc2ccc3c(c2)cc(C(=O)Nc2ccc(C(F)(F)F)nc2)n3C)c1 [Compound 18, 5-(2-chloro-5-(isobutyramidomethyl)benzamido)-1-methyl-N-(6-(trifluoromethyl)pyridin-3-yl)-1H-indole-2-carboxamide] | 7.22 | 

The next lines start with results.

Row | pIC50 [1] | Structure (SMILES) | further results
11 | 8.10 | CC(C)C(=O)NCc1ccc(Cl)c(C(=O)Nc2ccc3c(c2)cc(C(=O)NCc2ccc(C(F)(F)F)cc2)n3C)c1 [Compound 34, 5-(2-chloro-5-(isobutyramidomethyl)benzamido)-1-methyl-N-(4-(trifluoromethyl)benzyl)-1H-indole-2-carboxamide] | 
12 | 8.49 | CC(C)C(=O)NCc1ccc(Cl)c(-c2nc3cc(-c4ccc(C(F)(F)F)cc4)ncc3c(=O)[nH]2)c1 [GRC27864, reference compound] | Weight-bearing ratio ([2]; day 0): 40.84 ± 2.68%; Weight-bearing ratio ([2]; day 7): 43.66 ± 4.51%; Weight-bearing ratio ([2]; day 14): 39.85 ± 3.29%; Weight-bearing ratio ([2]; day 21): 37.35 ± 4.43%; Weight-bearing ratio ([2]; day 28): 40.92 ± 3.85%; weight-bearing ratios, course in words ([2]; over 4 weeks of oral administration after MIA): did not worsen after MIA administration but were maintained; IL-1β (ELISA analysis) [3]: 37.408 ± 9.109; PGE2 (ELISA analysis) [3]: 7756.9 ± 1860.5**; TNF-α (ELISA analysis) [3]: 97.110 ± 20.595*
13 | 8.57 | CC(C)C(=O)NCc1ccc(Cl)c(C(=O)Nc2ccc3c(c2)cc(C(=O)N[C@@H](C)c2ccc4ccccc4c2)n3CC(F)(F)F)c1 [Compound 65, (S)-5-(2-chloro-5-(isobutyramidomethyl)benzamido)-N-(1-(naphthalen-2-yl)ethyl)-1-(2,2,2-trifluoroethyl)-1H-indole-2-carboxamide] | 
14 | 8.03 | CC(C)C(=O)NCc1ccc(Cl)c(C(=O)Nc2ccc3c(c2)cc(C(=O)NCc2ccc(C(F)(F)F)cc2)n3CC(F)(F)F)c1 [Compound 64, 5-(2-chloro-5-(isobutyramidomethyl)benzamido)-1-(2,2,2-trifluoroethyl)-N-(4-(trifluoromethyl)benzyl)-1H-indole-2-carboxamide] | 
15 | 8.14 | CC(C)C(=O)NCc1ccc(Cl)c(C(=O)Nc2ccc3c(c2)cc(C(=O)Nc2cccc(-c4ccc(C(F)(F)F)cc4)c2)n3C)c1 [Compound 16, 5-(2-chloro-5-(isobutyramidomethyl)benzamido)-1-methyl-N-(4′-(trifluoromethyl)-[1,1′-biphenyl]-3-yl)-1H-indole-2-carboxamide] | 
16 | 8.04 | CC(C)C(=O)NCc1ccc(Cl)c(C(=O)Nc2ccc3c(c2)cc(C(=O)N[C@@H](C)c2ccc4ccccc4c2)n3C)c1 [Compound 31, (S)-5-(2-chloro-5-(isobutyramidomethyl)benzamido)-1-methyl-N-(1-(naphthalen-2-yl)ethyl)-1H-indole-2-carboxamide] | 
17 | 8.16 | Cc1c(-c2ccc(C(F)(F)F)cc2)n[nH]c1NC(=O)c1cc2cc(NC(=O)c3cc(CNC(=O)C(C)C)ccc3Cl)ccc2n1C [Compound 20, 5-(2-chloro-5-(isobutyramidomethyl)benzamido)-1-methyl-N-(4-methyl-3-(4-(trifluoromethyl)phenyl)-1H-pyrazol-5-yl)-1H-indole-2-carboxamide] | 
18 | 8.07 | CC(C)C(=O)NCc1ccc(Cl)c(C(=O)Nc2ccc3c(c2)cc(C(=O)NCc2ccc(F)cc2)n3CC(F)(F)F)c1 [Compound 68, 5-(2-chloro-5-(isobutyramidomethyl)benzamido)-N-(4-fluorobenzyl)-1-(2,2,2-trifluoroethyl)-1H-indole-2-carboxamide] | 
19 | 8.28 | CC(C)C(=O)NCc1ccc(Cl)c(C(=O)Nc2ccc3c(c2)cc(C(=O)Nc2ccc(C(F)(F)F)cc2)n3C)c1 [Compound 8, 5-(2-chloro-5-(isobutyramidomethyl)benzamido)-1-methyl-N-(4-(trifluoromethyl)phenyl)-1H-indole-2-carboxamide] | 
20 | 8.19 | CC(C)C(=O)NCc1ccc(Cl)c(C(=O)Nc2ccc3[nH]c(C(=O)Nc4ccc(C(F)(F)F)cc4)cc3c2)c1 [Compound 75, 5-(2-chloro-5-(isobutyramidomethyl)benzamido)-N-(4-(trifluoromethyl)phenyl)-1H-indole-2-carboxamide] | 

Reference: patent publication US12465588B2, “Indole carboxamide derivative and pharmaceutical composition containing same” (KUKJE PHARMA CO., LTD., priority 2019, dated 2025)
